The text below walks through data of patent US20240238214A1, “NANOCONSTRUCTS AND NANOPARTICLE-MEDIATED DELIVERY OF IMMUNOGENIC CELL DEATH INDUCERS FOR ENHANCING CANCER IMMUNOTHERAPY” (Purdue Research Foundation, priority 2021, published 2024).

In data set [1] the test system is CT26 murine carcinoma, B16F10 murine carcinoma and 4T1 breast mammary carcinoma cells. Put plainly: CRT exposure on cell surface (flow cytometry). The data set is classed as cell-based. The conditions noted are these: treated at IC50 for 6 hours; compared to control groups. As for the experimental part: (§1) The release of DAMPs from the treated cells were then analyzed (e.g., CRT exposure was measured by flow cytometry, HMGB1 was measured by quantifying western blot, and ATP was measured by ATP determination kit).
After 6 hours, cells were washed with PBS and fixed with 4% […] (PFA). Fixed cells were incubated with FITC-labeled CRT antibodies. Cells were analyzed by the Accuri C6 flow cytometer to determine the population of CRT-positive cells.
In general terms: A flow cytometer gives signals particle by particle.

Data set [2] has the same test system. Put plainly: HMGB1 release into medium (western blot). The conditions noted are these: treated at IC50 for 24 hours; supernatant. The data set is classed as cell-based. Background: In western blotting, separated proteins are transferred to a membrane and probed.
Description: After 24 hours, supernatants were collected, and a western blot immunoassay was performed to determine the amount of HMGB1 present.
Data set [3] shares this test system. The data set can be described thus: ATP secretion into medium (ATP determination kit). The conditions noted are these: treated at IC50 for 24 hours; supernatant. The data set is classed as cell-based. As for the experimental part: as §1
After 24 hours, supernatants were collected, and the amount of ATP in the supernatant was measured with ATP determination kit.

The next data set relates to CT26 murine carcinoma. Put plainly: Cytotoxicity by MTT assay, CT26. The data set is classed as cell-based. The conditions noted are these: Mus musculus; CT26 cells. As for the experimental part:
(§2) As the nanoparticles hereof can be used to deliver ICD inducers to create tumor antigens, which need to be taken up by APCs, in certain embodiments, it is important for the formulations to kill tumor cells, while saving the host immune cells.
Cytotoxicity was assessed by the MTT assay. CT26 cells were seeded in 96 wells with 3,000 cells/well and cultured until 30% confluency. Cells were treated with varying concentrations of Drug, Drug@NP, Drug@NP-pD, Drug@NP-pD-ATP for 24 hours. After 24 hours, media was replaced, the cells were incubated for an additional 24 hours, and an MTT assay was performed to measure the number of viable cells present (see FIGS. 13A and 14A).
For orientation: Tetrazolium dyes change colour on reduction, which living cells bring about.

The test system of data set [4] is CT26 cells phagocytosed by JAWSII DCs. The data set can be described thus: Phagocytosis assay. It counts as cell-based, murine. The conditions noted are these: CT26 treated with IC50 of drug, co-cultured with JAWSII for 24 hours. On the procedure: A phagocytosis assay was performed to observe whether cells killed by ICD inducers will be taken up by dendritic cells (DCs).
CT26 cells were stained with Cell Tracker Green for 30 mins (0.5 μM) and washed once with cold serum free DMEM. CT26 cells were incubated overnight in 10% FBS media to allow any unbound dye to be inactivated. CT26 cells were collected and seeded (150,000 cells/well) in 6 wells plate for 24 hours. JAWSII cells were collected and stained with Cell Tracker Deep Red for 30 mins (0.5 μM) and washed once with cold serum free RPMI. JAWSII cells were incubated overnight in 10% FBS media to allow any unbound dye to be inactivated. […] After the treatment, CT26 containing 6 wells plate was centrifuged at 500 g×8 mins. Supernatant was aspirated to remove any remaining drugs. JAWSII cells (150,000 cells/well) were added to CT26, and cells were co-cultured for 24 hours. The co-cultured cells were collected, resuspended in the staining buffer, and analyzed by the Accuri C6 flow cytometer.

The test system of another data set is CT26 cells. Put plainly: In vivo tumor vaccination study. The conditions noted are these: cells treated at 100× IC50 for 24 hours; three million dead cells; 500,000 live CT26 cells after 9 days. More on the design: species or system Balb/c mice. As for the experimental part:
The vaccination study, a standard test to verify bona fide ICD, was performed with PTX and CFZ (e.g., the candidate drugs) in vivo. The vaccination study involved generating tumor antigens by exposing tumor cells to lethal dose of ICD inducers. Potential ICD inducer-treated cells (i.e., the primary dose) were injected subcutaneously to immunocompetent mice. One week later, live tumor cells were injected on the contralateral side (i.e., the rechallenge), and the growth of the tumor was monitored to determine if the drug-killed tumor cells (i.e., the primary dose) can serve as a vaccine and prevent the growth of a live cell challenge.
Dead cells were collected and washed with PBS twice to remove excess amount of the drug.
Three million dead cells were injected into the right flanks of 6-week-old immunocompetent female Balb/c mice (i.e., the primary dose), the syngeneic host of CT26 cells. After 9 days, 500,000 live CT26 cells (live tumor cells) were inoculated subcutaneously in the contralateral side of the mice (i.e., the rechallenge) and tumor growth was monitored to determine the development of anti-tumor immunity.

The conditions of data set [5]: cited from earlier work.
The nature of another data set: physchem. The conditions noted are these: aqueous with cosolvent or surfactant or cyclodextrin.
Another data set has as its system JAWSII cells. The data set can be described thus: Stability against apyrase (DC migration assay in Transwell). It counts as cell-based, murine. The conditions noted are these: 10 μM ATP, 0.5 units of apyrase, 4 hours. On the procedure: To screen the effect of degrading enzyme to the nanoparticle-bound ATP, apyrase (a CD39 equivalent) was co-incubated with ATP or NP-pD-ATP, and a DC migration assay was performed in a Transwell (FIG. 9A). For the migration assay, 100 μL of 2×10^5 JAWSII cells, suspended in media, were added to the top of the Transwell (8 μm pore size). 600 μL of media containing 10 μM ATP conjugated nanoparticle was added to the bottom well (with or without 0.5 units of apyrase). Cells were incubated in 37° C. for 4 hours. Bottom media was collected to analyze the number of cells migrated by flow cytometry.

Another data set addresses T1, apyrase (Solanum tuberosum, UniProt P80595).
T1 construct: purchased Thermo Fisher Scientific Inc. (Waltham, MA)
T1 sequence (P80595 1-454): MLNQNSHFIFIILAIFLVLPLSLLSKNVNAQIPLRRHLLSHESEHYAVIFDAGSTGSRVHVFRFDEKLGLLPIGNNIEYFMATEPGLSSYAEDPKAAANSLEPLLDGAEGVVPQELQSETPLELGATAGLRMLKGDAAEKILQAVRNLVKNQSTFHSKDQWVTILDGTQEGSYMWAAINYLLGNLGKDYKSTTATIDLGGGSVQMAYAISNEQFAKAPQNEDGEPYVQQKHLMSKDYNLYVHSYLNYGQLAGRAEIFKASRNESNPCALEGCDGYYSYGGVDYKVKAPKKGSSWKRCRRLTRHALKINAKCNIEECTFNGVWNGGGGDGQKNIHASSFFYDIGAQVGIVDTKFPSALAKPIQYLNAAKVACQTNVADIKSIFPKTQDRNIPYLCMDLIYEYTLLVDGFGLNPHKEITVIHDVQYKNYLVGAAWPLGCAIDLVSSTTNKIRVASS
Put plainly: ATP level after incubation with apyrase (ATP bioluminescence assay). It counts as biochemical. The conditions noted are these: 10 μM ATP, 5 units/mL apyrase, 37° C., 10 minutes. As for the experimental part:
Further, to confirm the activity of apyrase against ATP, 10 μM ATP was incubated with or without 5 units/mL apyrase in 37° C. for 10 minutes. The ATP level after incubation was measured by ATP bioluminescence assay.

A further data set relates to JAWSII DCs. The data set can be described thus: Cytotoxicity by MTT assay, JAWSII. It counts as cell-based, murine. The conditions noted are these: 96 hours. On the procedure:
as §2
For JAWSII cells, JAWSII cells were seeded in 96 wells with 20,000 cells/well.

≈ marks a conversion by molar mass, not a printed value.

In general, IC50 refers to the point on the concentration scale where inhibition reaches its midpoint. Low values mean inhibition by little substance, high ones a need for much substance. The solubility is the concentration that dissolves in the medium under given conditions. Low readings indicate little dissolved substance, high ones much dissolved substance. Turning to `CC(C)C[C@H](NC(=O)[C@H](CCc1ccccc1)NC(=O)CN1CCOCC1)C(=O)N[C@@H](Cc1ccccc1)C(=O)N[C@@H](CC(C)C)C(=O)[C@@]1(C)CO1` [CFZ, carfilzomib], the CRT exposure entry in data set [1] is “induced the exposure of CRT”. Besides, the HMGB1 release entry in [2] is reported as “induced the release of HMGB1”. The ATP secretion entry in data set [3] was “caused the secretion of ATP”. Also, in the data set on CT26 murine carcinoma, the IC50 came to 0.015 µM. Also, the “uptake of CT26 to the dendritic cells” value in data set [4] is recorded as “significantly increased the uptake of CT26 to the dendritic cells”. Besides, the “tumor growth after live CT26 rechallenge in mice vaccinated with drug-treated dead cells” value (from here on “tumor growth after live CT26 rechallenge”) in the data set with CT26 cells is listed as “tumors did not grow”. Moreover, the water solubility in data set [5] was 0.7 to 3.6 µg/mL. This compound yielded a solubility in the data set “physchem” of 9 µg/mL (≈ 12.5 µM).
Consider `Nc1ccn([C@@H]2O[C@H](CO)[C@@H](O)C2(F)F)c(=O)n1` [GEM, gemcitabine], for which the CRT exposure entry in [1] is reported as “failed to induce CRT exposure”. The HMGB1 release entry in [2] was “failed to induce HMGB1 secretion”. For the same compound, in the data set with CT26 cells, the “tumor growth after live CT26 rechallenge” value is on record as “Tumors grew in all animals”.
Take `Nc1ncnc2c1ncn2[C@@H]1O[C@H](COP(=O)(O)OP(=O)(O)OP(=O)(O)O)[C@@H](O)[C@H]1O` [free ATP, adenosine triphosphate]: the “chemotactic ability (DC migration) in the presence of apyrase” value in the data set with JAWSII cells was “completely abolished the chemotactic ability of free ATP”. Moreover, on apyrase, the “ATP level after incubation with apyrase” value was “not detectable”.
`O=C1[O][Pt]2([NH][C@@H]3CCCC[C@H]3[NH]2)[O]C1=O` [OXA, oxaliplatin]: the HMGB1 release result in data set [2] was “induced the release of HMGB1”. Besides, in the data set with CT26 cells, the “tumor growth after live CT26 rechallenge” value is reported as “tumors did not grow”.
Turning to `CC(=O)O[C@H]1C(=O)[C@@]2(C)[C@H]([C@H](OC(=O)c3ccccc3)[C@]3(O)C[C@H](OC(=O)[C@H](O)[C@@H](NC(=O)c4ccccc4)c4ccccc4)C(C)=C1C3(C)C)[C@]1(OC(C)=O)CO[C@@H]1C[C@@H]2O` [PTX, paclitaxel], the CRT exposure entry in data set [1] is recorded as “induced the exposure of CRT”. Besides, in [2], the HMGB1 release entry is recorded as “induced the release of HMGB1”. For the same compound, in [3], the ATP secretion result is listed as “caused the secretion of ATP”. 0.25 µM corresponded to half-maximal inhibition in the data set on CT26 murine carcinoma (IC50). For the same compound, the “concentration with sudden decrease of DC viability” value in the data set on JAWSII DCs was not below 30 µM. Also, the “uptake of CT26 to the dendritic cells” value in data set [4] is reported as “significantly increased the uptake of CT26 to the dendritic cells”. Also, in the data set on CT26 cells, the “tumor growth after live CT26 rechallenge” value is recorded as “tumors did not grow”.
